Reference: PMC8041433 (Environmental Health Perspectives, 2021)
Several values for one entry are separate records, joined by “and”; a condition that tells them apart may be missing. Equal entries are not always repeated. Structures can show the parent of a compound that is named as a salt. Where two headings read alike, the source gives them in different places.

Legend:
recombinant human AChE [1] = target: T1, recombinant human AChE (Homo sapiens, UniProt P22303); experiment: biochemical
recombinant human AChE [2] = target: T1, recombinant human AChE; experiment: biochemical; remark: listed apart in the source
AChE in SH-SY5Y cells = AChE in SH-SY5Y cells (Homo sapiens, UniProt P22303); experiment: cell-based
AChE in SH-SY5Y cells, sequence (P22303 32-614): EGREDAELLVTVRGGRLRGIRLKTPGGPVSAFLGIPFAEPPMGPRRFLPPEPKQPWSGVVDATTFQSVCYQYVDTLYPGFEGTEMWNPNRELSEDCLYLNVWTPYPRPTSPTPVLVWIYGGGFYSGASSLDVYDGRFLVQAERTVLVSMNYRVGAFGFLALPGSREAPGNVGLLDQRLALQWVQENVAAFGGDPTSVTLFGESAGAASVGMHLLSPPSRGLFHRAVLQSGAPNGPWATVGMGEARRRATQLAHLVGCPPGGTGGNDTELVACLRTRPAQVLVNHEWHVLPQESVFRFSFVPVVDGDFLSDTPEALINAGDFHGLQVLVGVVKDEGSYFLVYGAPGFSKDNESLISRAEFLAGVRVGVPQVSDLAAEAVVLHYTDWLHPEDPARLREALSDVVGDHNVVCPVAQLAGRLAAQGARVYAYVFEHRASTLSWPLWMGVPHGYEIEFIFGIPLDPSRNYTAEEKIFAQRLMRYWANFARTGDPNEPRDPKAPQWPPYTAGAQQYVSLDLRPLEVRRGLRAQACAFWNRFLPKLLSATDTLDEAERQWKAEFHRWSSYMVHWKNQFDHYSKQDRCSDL

[3] = target: AChE in SH-SY5Y spheroids (Homo sapiens, UniProt P22303); experiment: cell-based
AChE in SH-SY5Y spheroids, sequence (P22303 32-614): as above

[4] = target: AChE in neural stem cells (Homo sapiens, UniProt P22303); experiment: cell-based
AChE in neural stem cells, sequence (P22303 32-614): as above

[5] = target: AChE in neural stem cell spheroids (Homo sapiens, UniProt P22303); experiment: cell-based; details: for IC50: potency (IC50)
AChE in neural stem cell spheroids, sequence (P22303 32-614): as above

recombinant human AChE [6] = target: T1, recombinant human AChE; experiment: biochemical; format: biochemical; details: for AC50: AC50 (uM)
recombinant human AChE [7] = target: T1, recombinant human AChE
recombinant human AChE [8] = target: T1, recombinant human AChE; experiment: biochemical; remark: listed apart in the source
[9] = potency (IC50), SH-SY5Y cells monolayer
[10] = potency (IC50), SH-SY5Y spheroids (24 h)
[11] = Neural stem cell spheroid (24 h)
[12] = Neural stem cell spheroid (48 h)
[13] = potency (IC50), Enzyme with microsomes
[14] = potency (IC50), SH-SY5Y spheroids (48 h)
For IR or R in this document: key: Reversible (R); Irreversible (IR); ND, not detected in enzyme-based AChE inhibition assay from current study.

T1 sequence (P22303 32-614): as above

Row | Compound | CC-v2 (curve classes) (recombinant human AChE [1]) | Efficacy (recombinant human AChE [1]) | IC50 (recombinant human AChE [1]; potency (IC50), Enzyme) | IC50 (recombinant human AChE [2]) | CC-v2 (curve classes) (AChE in SH-SY5Y cells) | IC50 (AChE in SH-SY5Y cells; IC50 (uM)) | IC50 (AChE in SH-SY5Y cells; [9]) | IC50 [3, 10] | IC50 [4] | IC50 [5, 11] | IC50 [5, 12] | AC50 (recombinant human AChE [6]) | CC-v2 (curve classes) (recombinant human AChE [7]) | Efficacy (recombinant human AChE [7]) | IC50 (recombinant human AChE [8]; [13]) | IC50 [3, 14] | IR or R (recombinant human AChE [6]) | AC50 (recombinant human AChE [6]; activity_5) | AC50 (recombinant human AChE [6]; activity_10) | AC50 (recombinant human AChE [6]; activity_60) | also measured
1 | CCOP(=O)(OCC)Oc1cc(C)nc(C(C)C)n1 [Diazoxon] | -1.1 | -95.835 | 1.12 ± 0.12 µM | 2.25 ± 0.26 µM | -1.1 | 0.143 µM and 0.179 µM and 0.201 µM | 0.26 ± 0.03 µM | 2.3 ± 0.96 µM | 0.24 ± 0.04 µM | 0.22 µM | 0.39 ± 0.07 µM | 44.6 µM | -1.1 | -95.678 | 3.69 ± 0.24 µM | – | – | – | – | – | IC50 ([3]; read-out: potency (IC50), SH-SY5Y spheroids (48 h)): 0.5 µM
2 | CN1CCc2cc(Cl)c(O)cc2[C@H]2c3ccccc3CC[C@@H]21 [Ecopipam, reference compound] | -2.2 | -53.005 | 20.1 µM | 32.7 ± 9.64 µM | -2.2 | 27.5 µM and 34.7 µM | 15.8 µM | – | 17.5 µM | – | 3.16 µM | 21.7 µM (2×) and 9.68 µM and 19.3 µM and 15.3 µM (2×) and 17.2 µM | 4 | 0 | 27.3 µM | 17.7 µM | R | – | – | – | IC50 (recombinant human AChE [1]; IC50 (uM)): 34.7 µM
3 | CCOP(=S)(OCC)SCn1c(=O)oc2cc(Cl)ccc21 [Phosalone] | 4 | – | – | – | -2.2 | 56.4 µM and 48.1 µM and 35.6 µM and 76.2 µM | – | 66.3 µM | 17.1 µM | 9.61 µM | 10.5 µM | – | -1.1 | – | 2.91 µM | 50 µM | – | 55.9 µM and 35.2 µM | 55.9 µM and 62.7 µM and 49.8 µM | 62.7 µM and 55.9 µM | AChE inhibition (result in words) (recombinant human AChE [1]): did not show effects; potency (IC50), Enzyme (recombinant human AChE [1]): Inactive; potency (IC50), Enzyme-based assay with heat-inactivated microsomes (recombinant human AChE [2]): Inactive; potency (IC50), SH-SY5Y cells monolayer (AChE in SH-SY5Y cells): Inactive; IC50 (recombinant human AChE [8]; IC50 (uM)): 3.99 µM and 8.55 µM
4 | CCOC(=O)c1ccc(NC(=O)CN2CCCCC2)cc1 [Sulcaine, reference compound] | -2.2 | -40.558 | 20.1 µM | 23.4 ± 1.53 µM | -2.1 | 30.9 µM and 27.5 µM and 15.5 µM | 15.3 µM | 12.9 µM | 19.6 µM | 15.6 µM | 13.7 µM | – | 4 | 0 | 23.4 µM | 20.9 µM | R | 24.3 µM and 27.3 µM | 24.3 µM and 27.3 µM | 21.7 µM and 27.3 µM | IC50 (recombinant human AChE [1]; IC50 (uM)): 30.9 µM
5 | Cl.Clc1cc(Cl)c2c(c1)N=C1CCCCCN1C2 [PharmaGSID_47259] | -1.1 | -94.138 | 0.54 ± 0.06 µM | 1.54 ± 0.18 µM | -1.1 | 0.776 µM and 0.692 µM | 0.87 ± 0.18 µM | 2.24 ± 2.76 µM | 10.7 ± 2.66 µM | 13.5 ± 9.25 µM | 22 µM | – | -1.1 | -90.391 | 1.79 ± 0.22 µM | 0.85 ± 0.21 µM | R | 1.09 µM and 0.544 µM | 0.153 µM and 1.22 µM and 1.09 µM | 0.968 µM and 0.172 µM and 1.22 µM | –
6 | CCOP(=S)(OCC)SCSP(=S)(OCC)OCC [Ethion] | -2.1 | -121.235 | 7.92 ± 0.91 µM | 58.7 ± 10.6 µM | -2.1 | 39.9 µM and 35.6 µM and 31.7 µM | 17 ± 1.1 µM | 31.9 ± 21.6 µM | 7.03 ± 3.56 µM | 0.09 ± 0.02 µM | 0.48 ± 0.46 µM | 49.8 µM (3×) and 55.9 µM (3×) and 88.5 µM and 62.7 µM | -1.1 | -94.606 | 11.1 µM | 42.8 ± 2.79 µM | – | – | – | – | –
7 | CNC(=O)Oc1ccccc1OC(C)C [Propoxur] | -1.1 | – | 1.55 ± 0.43 µM | 1.91 ± 0.12 µM | -1.1 | 2.24 µM and 2 µM (2×) and 1.59 µM and 1.78 µM | 3.05 ± 0.52 µM | 3.55 ± 2.59 µM | 17 ± 1.1 µM | 20.1 ± 4.2 µM | 35.8 µM | – | -1.1 | – | 1.76 µM | 2.45 ± 0.61 µM | R | 22.2 µM and 14 µM and 6.27 µM | 4.98 µM and 14 µM and 7.03 µM | 1.77 µM and 1.11 µM and 2.5 µM | –
8 | CCOC(=O)CCN(SN(C)C(=O)Oc1cccc2c1OC(C)(C)C2)C(C)C [Benfuracarb] | -1.1 | -95.401 | 4.97 µM | 1.85 ± 0.24 µM | -1.1 | 0.252 µM and 0.356 µM and 0.0448 µM | 1.25 µM | 1.76 µM | 7.67 µM | 12.1 µM | 12.6 µM | 0.885 µM and 0.703 µM and 0.789 µM and 1.25 µM and 0.993 µM and 0.627 µM and 0.444 µM and 0.314 µM and 0.498 µM | -1.1 | -96.321 | 1.4 µM | 0.84 µM | – | – | – | – | –
9 | CC(=O)Oc1cc(C(C)C)c(OCCN(C)C)cc1C [Moxisylyte hydrochloride, reference compound] | -2.2 | -54.154 | 21.9 µM | 20.1 ± 1.36 µM | -2.1 and -1.1 | 13.8 µM | 20.1 µM | 14.3 µM | 19.3 µM | – | 24.3 µM | – | -2.4 | -32.666 | 19.3 µM | 20.9 µM | R | 19.3 µM and 17.2 µM and 21.7 µM | 19.3 µM and 24.3 µM and 21.7 µM | 17.2 µM and 24.3 µM and 21.7 µM | potency (IC50), Neural stem cell spheroid (24 h) [5]: Inactive
10 | CNC(=O)Oc1cccc2c1OC(C)(C)C2 [Carbofuran] | -1.1 | – | 0.09 µM | 0.23 ± 0.03 µM | -1.1 | 0.0894 µM and 0.725 µM and 0.647 µM and 0.1 µM and 0.458 µM | 0.29 ± 0.05 µM | 0.64 ± 0.97 µM | 2.19 ± 0.61 µM | 2.44 ± 0.61 µM | 4.82 ± 0.66 µM | 993 nM (2×) and 1.11 µM (2×) and 885 nM and 125 nM and 314 nM and 157 nM | -1.1 | – | 0.22 ± 0.04 µM | 0.27 ± 0.05 µM | – | – | – | – | –
11 | CS/C(C)=N\OC(=O)N(C)SN(C)C(=O)O/N=C(\C)SC [Thiodicarb] | -1.1 | -104.676 | 7.03 µM | 3.97 ± 0.46 µM | -1.1 | 1.42 µM and 1.26 µM and 1.12 µM | 2.81 ± 0.32 µM | 1.58 ± 0.57 µM | 5.43 ± 0.92 µM | 7.63 ± 1.05 µM | 7.8 ± 2.18 µM | 4.44 µM and 3.95 µM (2×) and 3.14 µM and 6.27 µM and 5.59 µM and 1.57 µM and 1.98 µM | -2.1 | -115.189 | 5.48 ± 1.36 µM | 2.62 ± 0.47 µM | – | – | – | – | –
